# Measured values as given in ChEMBL document CHEMBL3621049, “Imidazole derivatives show anticancer potential by inducing apoptosis and cellular senescence” (2014).
# Active and inactive are the calls of the source. No cut-off for these calls is given here.
# Experiments:
# [1] = test system: A549; experiment: Cell cycle arrest in human A549 cells assessed as accumulation at sub-G1 phase at 20 uM after 48 hrs using propidium iodide staining by flow cytometer analysis (reference value: 0.96%); format: functional
# [2] = test system: SF-295; experiment: Growth inhibition of human SF295 cells at 10 uM by sulforhodamine B assay; format: functional, cell-based
# [3] = test system: UACC-257; experiment: Growth inhibition of human UACC257 cells at 10 uM by sulforhodamine B assay; format: functional, cell-based
# [4] = test system: TK-10; experiment: Growth inhibition of human TK10 cells at 10 uM by sulforhodamine B assay; format: functional, cell-based
# [5] = test system: HL-60(TB); experiment: Growth inhibition of human HL-60(TB) cells at 10 uM by sulforhodamine B assay; format: functional, cell-based
# [6] = test system: MOLT-4; experiment: Growth inhibition of human MOLT4 cells at 10 uM by sulforhodamine B assay; format: functional, cell-based
# [7] = test system: SNB-75; experiment: Growth inhibition of human SNB75 cells at 10 uM by sulforhodamine B assay; format: functional, cell-based
# [8] = test system: HCT-15; experiment: Growth inhibition of human HCT15 cells at 10 uM by sulforhodamine B assay; format: functional, cell-based
# [9] = test system: MCF7; experiment: Growth inhibition of human MCF7 cells at 10 uM by sulforhodamine B assay; format: functional, cell-based
# [10] = test system: NCI/ADR-RES; experiment: Growth inhibition of human NCI/ADR-RES cells at 10 uM by sulforhodamine B assay; format: functional, cell-based
# [11] = test system: LOX IMVI; experiment: Growth inhibition of human LOXIMVI cells at 10 uM by sulforhodamine B assay; format: functional, cell-based
# [12] = test system: CAKI-1; experiment: Growth inhibition of human Caki1 cells at 10 uM by sulforhodamine B assay; format: functional, cell-based
# [13] = test system: UACC-62; experiment: Growth inhibition of human UACC62 cells at 10 uM by sulforhodamine B assay; format: functional, cell-based
# [14] = test system: SK-MEL-28; experiment: Growth inhibition of human SK-MEL-28 cells at 10 uM by sulforhodamine B assay; format: functional, cell-based
# [15] = test system: NCI-H226; experiment: Growth inhibition of human NCI-H226 cells at 10 uM by sulforhodamine B assay; format: functional, cell-based
# [16] = test system: T47D; experiment: Growth inhibition of human T47D cells at 10 uM by sulforhodamine B assay; format: functional, cell-based
# [17] = test system: SK-MEL-2; experiment: Growth inhibition of human SK-MEL-2 cells at 10 uM by sulforhodamine B assay; format: functional, cell-based
# [18] = test system: IGROV-1; experiment: Growth inhibition of human IGROV1 cells at 10 uM by sulforhodamine B assay; format: functional, cell-based
# [19] = test system: ACHN; experiment: Growth inhibition of human ACHN cells at 10 uM by sulforhodamine B assay; format: functional, cell-based
# [20] = test system: A549; experiment: Induction of cellular senescence in human A549 cells assessed as increase of endogenous level of beta-galactosidase by […]/X-gal staining; format: functional, cell-based
# [21] = test system: MDA-MB-468; experiment: Growth inhibition of human MDA-MB-468 cells at 10 uM by sulforhodamine B assay; format: functional, cell-based
# [22] = test system: A549; experiment: Cell cycle arrest in human A549 cells assessed as accumulation at G2/M phase at 5 uM after 48 hrs using propidium iodide staining by flow cytometer analysis (reference value: 13.02%); format: functional
# [23] = test system: MDA-MB-435; experiment: Growth inhibition of human MDA-MB-435 cells at 10 uM by sulforhodamine B assay; format: functional, cell-based
# [24] = test system: HCT-116; experiment: Growth inhibition of human HCT116 cells at 10 uM by sulforhodamine B assay; format: functional, cell-based
# [25] = test system: NCI-H23; experiment: Growth inhibition of human NCI-H23 cells at 10 uM by sulforhodamine B assay; format: functional, cell-based
# [26] = test system: 786-0; experiment: Growth inhibition of human 786-0 cells at 10 uM by sulforhodamine B assay; format: functional, cell-based
# [27] = test system: HT-29; experiment: Growth inhibition of human HT-29 cells at 10 uM by sulforhodamine B assay; format: functional, cell-based
# [28] = test system: A549; experiment: Cytotoxicity against human A549 cells assessed as decrease in cell viability up to 72 hrs by MTT assay; format: functional, cell-based
# [29] = test system: SR; experiment: Growth inhibition of human SR cells at 10 uM by sulforhodamine B assay; format: functional, cell-based
# [30] = test system: HOP-92; experiment: Growth inhibition of human HOP92 cells at 10 uM by sulforhodamine B assay; format: functional, cell-based
# [31] = test system: A549; experiment: Cell cycle arrest in human A549 cells assessed as accumulation at sub-G1 phase at 10 uM after 48 hrs using propidium iodide staining by flow cytometer analysis (reference value: 0.96%); format: functional
# [32] = test system: SK-MEL-5; experiment: Growth inhibition of human SK-MEL-5 cells at 10 uM by sulforhodamine B assay; format: functional, cell-based
# [33] = test system: OVCAR-4; experiment: Growth inhibition of human OVCAR4 cells at 10 uM by sulforhodamine B assay; format: functional, cell-based
# [34] = test system: A549; experiment: Cell cycle arrest in human A549 cells assessed as accumulation at G2/M phase at 20 uM after 48 hrs using propidium iodide staining by flow cytometer analysis (reference value: 13.02%); format: functional
# [35] = test system: A549; experiment: Cell cycle arrest in human A549 cells assessed as accumulation at G2/M phase at 10 uM after 48 hrs using propidium iodide staining by flow cytometer analysis (reference value: 13.02%); format: functional
# [36] = test system: U-251; experiment: Growth inhibition of human U251 cells at 10 uM by sulforhodamine B assay; format: functional, cell-based
# [37] = test system: KM12; experiment: Growth inhibition of human KM12 cells at 10 uM by sulforhodamine B assay; format: functional, cell-based
# [38] = test system: CCRF-CEM; experiment: Growth inhibition of human CCRF-CEM cells at 10 uM by sulforhodamine B assay; format: functional, cell-based
# [39] = test system: NCI-H522; experiment: Growth inhibition of human NCI-H522 cells at 10 uM by sulforhodamine B assay; format: functional, cell-based
# [40] = test system: Hs-578T; experiment: Growth inhibition of human Hs 578T cells at 10 uM by sulforhodamine B assay; format: functional, cell-based
# [41] = test system: SF-539; experiment: Growth inhibition of human SF539 cells at 10 uM by sulforhodamine B assay; format: functional, cell-based
# [42] = test system: RPMI-8226; experiment: Growth inhibition of human RPMI8226 cells at 10 uM by sulforhodamine B assay; format: functional, cell-based
# [43] = test system: RXF 393; experiment: Growth inhibition of human RXF393 cells at 10 uM by sulforhodamine B assay; format: functional, cell-based
# [44] = test system: A549; experiment: Cell cycle arrest in human A549 cells assessed as accumulation at G0/G1 phase at 10 uM after 48 hrs using propidium iodide staining by flow cytometer analysis (reference value: 79.34%); format: functional
# [45] = test system: PC-3; experiment: Growth inhibition of human PC3 cells at 10 uM by sulforhodamine B assay; format: functional, cell-based
# [46] = test system: A549; experiment: Cell cycle arrest in human A549 cells assessed as accumulation at S phase at 5 uM after 48 hrs using propidium iodide staining by flow cytometer analysis (reference value: 6.67%); format: functional
# [47] = test system: K562; experiment: Growth inhibition of human K562 cells at 10 uM by sulforhodamine B assay; format: functional, cell-based
# [48] = test system: A549; experiment: Cell cycle arrest in human A549 cells assessed as accumulation at S phase at 10 uM after 48 hrs using propidium iodide staining by flow cytometer analysis (reference value: 6.67%); format: functional
# [49] = test system: HCC 2998; experiment: Growth inhibition of human HCC2998 cells at 10 uM by sulforhodamine B assay; format: functional, cell-based
# [50] = test system: OVCAR-8; experiment: Growth inhibition of human OVCAR8 cells at 10 uM by sulforhodamine B assay; format: functional, cell-based
smiles,measurement,setting,value
COc1ccc(-c2nc(-c3ccccn3)c(-c3ccccn3)n2CC(C)C)cc1OC1CCCC1,Activity,[1],19.34%
same,growth inhibition (GI),[2],Active
same,growth inhibition (GI),[3],Active
same,growth inhibition (GI),[4],Active
same,growth inhibition (GI),[5],Active
same,growth inhibition (GI),[6],Active
same,growth inhibition (GI),[7],Active
same,growth inhibition (GI),[8],Active
same,growth inhibition (GI),[9],Active
same,growth inhibition (GI),[10],Active
same,growth inhibition (GI),[11],Active
same,growth inhibition (GI),[12],Active
same,growth inhibition (GI),[13],Active
same,growth inhibition (GI),[14],Active
same,growth inhibition (GI),[15],Active
same,growth inhibition (GI),[16],Active
same,growth inhibition (GI),[17],Active
same,growth inhibition (GI),[18],Active
same,growth inhibition (GI),[19],Active
same,Activity,[20],Dose-dependent effect
same,growth inhibition (GI),[21],Active
same,Activity,[22],4.65%
same,growth inhibition (GI),[23],Active
same,growth inhibition (GI),[24],Active
same,growth inhibition (GI),[25],Active
same,growth inhibition (GI),[26],Active
same,growth inhibition (GI),[27],Active
same,Activity,[28],Dose-dependent effect
same,growth inhibition (GI),[29],Active
same,growth inhibition (GI),[30],Active
same,Activity,[31],7.63%
same,growth inhibition (GI),[32],Active
same,growth inhibition (GI),[33],Active
same,Activity,[34],4.51%
same,Activity,[35],6.73%
same,growth inhibition (GI),[36],Active
same,growth inhibition (GI),[37],Active
same,growth inhibition (GI),[38],Active
same,growth inhibition (GI),[39],Active
same,growth inhibition (GI),[40],Active
same,growth inhibition (GI),[41],Active
same,growth inhibition (GI),[42],Active
same,growth inhibition (GI),[43],Active
same,Activity,[44],75.7%
same,growth inhibition (GI),[45],Active
same,Activity,[46],3.47%
same,growth inhibition (GI),[47],Active
same,Activity,[48],9.95%
same,growth inhibition (GI),[49],Active
same,growth inhibition (GI),[50],Active
